Holding throughout (experiment): relative viability (nuclei count vs DMSO), 5 days (fraction); higher = more cells survive
Compound in the test “Carboplatin + Tozasertib”: C1CC(C1)(C(=O)O)C(=O)O.[NH2-].[NH2-].[Pt+2] [Carboplatin] + Cc1cc(Nc2cc(N3CCN(C)CC3)nc(Sc3ccc(NC(=O)C4CC4)cc3)n2)n[nH]1 [Tozasertib] (partner 0.1 µM)
In short, it runs like this: (§1)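 Lung cancer cell lines were seeded in 1536-well plates and dosed by pin tool the next day, with either a single drug or a fixed anchor-drug dose combined with five library-drug doses (not always all listed) spaced in √10 steps. Five days later, one step fixed the cells and stained their nuclei (final 0.05% Triton X-100, 1% formaldehyde, 1 ug/ml Hoechst), and nuclei were counted on 4× images. Relative viability is the nuclei count in treated wells divided by the count in vehicle wells, and each value is the median of duplicate plates.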

Compound in the test “GSK126 + Navitoclax”: CC[C@H](C)N1C=C(C2=C(C=C(C=C21)C3=CN=C(C=C3)N4CCNCC4)C(=O)NCC5=C(C=C(NC5=O)C)C)C [GSK126] + CC1(C)CCC(c2ccc(Cl)cc2)=C(CN2CCN(c3ccc(C(=O)NS(=O)(=O)c4ccc(N[C@H](CCN5CCOCC5)CSc5ccccc5)c(S(=O)(=O)C(F)(F)F)c4)cc3)CC2)C1 [Navitoclax] (partner 0.5 µM)
The method, boiled down:
as §1

Compound in the test “MLN4924 + Trametinib”: NS(=O)(=O)OC[C@@H]1C[C@@H](n2ccc3c(N[C@H]4CCc5ccccc54)ncnc32)C[C@@H]1O [MLN4924] + CC(=O)Nc1cccc(-n2c(=O)n(C3CC3)c(=O)c3c(Nc4ccc(I)cc4F)n(C)c(=O)c(C)c32)c1 [Trametinib] (partner 0.02 µM)
In short, it runs like this: as §1

Compound in the test “MLN4924 + Lapatinib”: NS(=O)(=O)OC[C@@H]1C[C@@H](n2ccc3c(N[C@H]4CCc5ccccc54)ncnc32)C[C@@H]1O [MLN4924] + CS(=O)(=O)CCNCc1ccc(-c2ccc3ncnc(Nc4ccc(OCc5cccc(F)c5)c(Cl)c4)c3c2)o1 [Lapatinib] (partner 2 µM)
In short, it runs like this:
as §1

Take UMC-11: the relative viability in the test with Carboplatin + Tozasertib (first compound 0.08 µM) came to 0.22; with Carboplatin + Tozasertib (first compound 0.253 µM), 0.208; with Carboplatin + Tozasertib (first compound 0.8 µM) it was 0.207; with Carboplatin + Tozasertib (first compound 2.53 µM) it was 0.193; with Carboplatin + Tozasertib (first compound 8 µM) it was 0.212; with GSK126 + Navitoclax (first compound 0.08 µM), 0.323. Besides, the relative viability is 0.314 in the test with GSK126 + Navitoclax (first compound 0.253 µM); 0.316 in the test with GSK126 + Navitoclax (first compound 0.8 µM); 0.264 with GSK126 + Navitoclax (first compound 2.53 µM); 0.279 with GSK126 + Navitoclax (first compound 8 µM); 0.487 with MLN4924 + Trametinib (first compound 0.04 µM); 0.367 with MLN4924 + Trametinib (first compound 0.1265 µM). Besides, the relative viability with MLN4924 + Trametinib (first compound 0.4 µM) is 0.253; with MLN4924 + Trametinib (first compound 1.265 µM), 0.115; in the test with MLN4924 + Trametinib (first compound 4 µM), 0.142; with MLN4924 + Lapatinib (first compound 0.04 µM), 0.39; in the test with MLN4924 + Lapatinib (first compound 0.1265 µM) it was 0.383; with MLN4924 + Lapatinib (first compound 0.4 µM), 0.271. Further, the relative viability turned out to be 0.122 with MLN4924 + Lapatinib (first compound 1.265 µM) and 0.143 with MLN4924 + Lapatinib (first compound 4 µM).

The values above are taken from the supplement of paper PMC10307832.
